Assay results published in ChEMBL document CHEMBL1201861, “Genomics of Drug Sensitity in Cancer screening data, Wellcome Trust Sanger Institute”.

Tests used:
Assay in all cases: cells
Settings in all cases: Homo sapiens
[1] = tested on: 697; assay type: functional, cell-based
Description: SANGER: Inhibition of human 697 cell growth in a cell viability assay.

[2] = tested on: Becker; assay type: functional, cell-based;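 also: growth inhibition of Becker cells, read out with a cell viability assay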
Description: SANGER: Inhibition of human Becker cell growth in a cell viability assay.

[3] = tested on: BB65-RCC; assay type: functional, cell-based;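 also: growth inhibition of the cell line, measured with a cell viability assay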
Description: SANGER: Inhibition of human BB65-RCC cell growth in a cell viability assay.

[4] = tested on: MC116; assay type: functional, cell-based;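 also: growth inhibition of MC116 cells, read out with a cell viability assay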
Description: SANGER: Inhibition of human MC116 cell growth in a cell viability assay.

[5] = tested on: JVM-3; assay type: functional, cell-based;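 also: growth inhibition of human JVM-3 cells, read out with a cell viability assay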
Description: SANGER: Inhibition of human JVM-3 cell growth in a cell viability assay.

[6] = tested on: D283 Med; assay type: functional, cell-based
Description: SANGER: Inhibition of human D-283MED cell growth in a cell viability assay.

[7] = tested on: SW684; assay type: functional, cell-based;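 also: growth inhibition of human SW684 cells, measured by a cell viability assay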
Description: SANGER: Inhibition of human SW684 cell growth in a cell viability assay.

[8] = tested on: CP66-MEL; assay type: functional, cell-based;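 also: growth inhibition of CP66-MEL cells determined in a cell viability assay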
Description: SANGER: Inhibition of human CP66-MEL cell growth in a cell viability assay.

[9] = tested on: ALL-PO; assay type: functional, cell-based;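 also: growth inhibition of ALL-PO cells, read out by a cell viability assay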
Description: SANGER: Inhibition of human ALL-PO cell growth in a cell viability assay.

[10] = tested on: LS-513; assay type: functional, cell-based
Description: SANGER: Inhibition of human LS-513 cell growth in a cell viability assay.

[11] = tested on: MV4-11; assay type: functional, cell-based, MV-4-11;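 also: cell viability readout measuring growth inhibition of human MV-4-11 cells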
Description: SANGER: Inhibition of human MV-4-11 cell growth in a cell viability assay.

[12] = tested on: HCC2218; assay type: functional, cell-based;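 also: cell viability assay read-out, with IC50 given as the concentration that inhibits growth of the cell line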
Description: SANGER: Inhibition of human HCC2218 cell growth in a cell viability assay.

[13] = tested on: NB69; assay type: functional, cell-based;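 also: growth inhibition of NB69 cells, determined by a cell viability assay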
Description: SANGER: Inhibition of human NB69 cell growth in a cell viability assay.

[14] = tested on: MZ2-MEL; assay type: functional, cell-based;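 also: growth inhibition of MZ2-MEL cells read out with a cell viability assay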
Description: SANGER: Inhibition of human MZ2-MEL cell growth in a cell viability assay.

[15] = tested on: HT; assay type: functional, cell-based
Description: SANGER: Inhibition of human HT cell growth in a cell viability assay.

[16] = tested on: GI-1; assay type: functional, cell-based;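 also: growth inhibition of human GI-1 cells, measured with a cell viability readout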
Description: SANGER: Inhibition of human GI-1 cell growth in a cell viability assay.

[17] = tested on: SK-N-FI; assay type: functional, cell-based;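 also: cell viability assay measuring growth inhibition of human SK-N-FI cells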
Description: SANGER: Inhibition of human SK-N-FI cell growth in a cell viability assay.

[18] = tested on: OMC-1; assay type: functional, cell-based;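 also: growth inhibition of the OMC-1 cell line, measured by a cell viability assay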
Description: SANGER: Inhibition of human OMC-1 cell growth in a cell viability assay.

[19] = tested on: ATN-1; assay type: functional, cell-based;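 also: growth inhibition of human ATN-1 cells, read out with a cell viability assay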
Description: SANGER: Inhibition of human ATN-1 cell growth in a cell viability assay.

[20] = tested on: MHH-PREB-1; assay type: functional, cell-based;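 also: cell viability assay measuring inhibition of proliferation of human MHH-PREB-1 cells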
Description: SANGER: Inhibition of human MHH-PREB-1 cell growth in a cell viability assay.

[21] = tested on: NB13; assay type: functional, cell-based;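 also: cell viability readout measuring growth inhibition of human NB13 cells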
Description: SANGER: Inhibition of human NB13 cell growth in a cell viability assay.

[22] = tested on: KURAMOCHI; assay type: functional, cell-based;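 also: growth inhibition of KURAMOCHI cells, read out with a cell viability assay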
Description: SANGER: Inhibition of human KURAMOCHI cell growth in a cell viability assay.

[23] = tested on: ES1; assay type: functional, cell-based;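 also: growth inhibition of ES1 cells, read out with a cell viability assay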
Description: SANGER: Inhibition of human ES1 cell growth in a cell viability assay.

[24] = tested on: ES3; assay type: functional, cell-based;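 also: growth inhibition of ES3 cells, read out with a cell viability assay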
Description: SANGER: Inhibition of human ES3 cell growth in a cell viability assay.

[25] = tested on: EC-GI-10; assay type: functional, cell-based
Description: SANGER: Inhibition of human EC-GI-10 cell growth in a cell viability assay.

[26] = tested on: SW 954; assay type: functional, cell-based;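 also: growth inhibition of SW954 human cancer cells, read out as cell viability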
Description: SANGER: Inhibition of human SW954 cell growth in a cell viability assay.

[27] = tested on: IST-MES1; assay type: functional, cell-based;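 also: growth inhibition of IST-MES1 cells, measured with a cell viability assay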
Description: SANGER: Inhibition of human IST-MES1 cell growth in a cell viability assay.

[28] = tested on: ES7; assay type: functional, cell-based;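 also: growth inhibition of cultured human ES7 cells, read out as cell viability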
Description: SANGER: Inhibition of human ES7 cell growth in a cell viability assay.

[29] = tested on: SK-MEL-1; assay type: functional, cell-based;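 also: growth inhibition of human SK-MEL-1 cells, read out by a cell viability assay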
Description: SANGER: Inhibition of human SK-MEL-1 cell growth in a cell viability assay.

[30] = tested on: BB30-HNC; assay type: functional, cell-based;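 also: growth inhibition of the cultured cell line, read out by a cell viability assay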
Description: SANGER: Inhibition of human BB30-HNC cell growth in a cell viability assay.

[31] = tested on: DMS-114; assay type: functional, cell-based
[32] = tested on: LB771-HNC; assay type: functional, cell-based;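 also: growth inhibition of LB771-HNC human cells, read out with a cell viability assay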
Description: SANGER: Inhibition of human LB771-HNC cell growth in a cell viability assay.

[33] = tested on: LU-134-A; assay type: functional, cell-based
Description: SANGER: Inhibition of human LU-134-A cell growth in a cell viability assay.

[34] = tested on: NCI-H1770; assay type: functional, cell-based;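 also: growth inhibition of NCI-H1770 cells determined with a viability readout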
Description: SANGER: Inhibition of human NCI-H1770 cell growth in a cell viability assay.

[35] = tested on: NCI-H510A; assay type: functional, cell-based;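 also: growth inhibition of NCI-H510A cells, read out with a cell viability assay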
Description: SANGER: Inhibition of human NCI-H510A cell growth in a cell viability assay.

[36] = tested on: LU-139; assay type: functional, cell-based
Description: SANGER: Inhibition of human LU-139 cell growth in a cell viability assay.

[37] = tested on: NCI-H1299; assay type: functional, cell-based;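 also: growth inhibition of human NCI-H1299 cells, read out by a cell viability assay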
Description: SANGER: Inhibition of human NCI-H1299 cell growth in a cell viability assay.

[38] = tested on: U-266; assay type: functional, cell-based
Description: SANGER: Inhibition of human U-266 cell growth in a cell viability assay.

[39] = tested on: SNU1; assay type: functional, cell-based;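 also: growth inhibition of human NCI-SNU-1 cells, measured with a cell viability assay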
Description: SANGER: Inhibition of human NCI-SNU-1 cell growth in a cell viability assay.

[40] = tested on: DU-4475; assay type: functional, cell-based
Description: SANGER: Inhibition of human DU-4475 cell growth in a cell viability assay.

[41] = tested on: LB2241-RCC; assay type: functional, cell-based;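 also: cell viability assay measuring how strongly the cultured human renal carcinoma line is prevented from growing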
Description: SANGER: Inhibition of human LB2241-RCC cell growth in a cell viability assay.

[42] = tested on: ONS-76; assay type: functional, cell-based;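 also: growth inhibition of human ONS-76 cells, read out with a cell viability assay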
Description: SANGER: Inhibition of human ONS-76 cell growth in a cell viability assay.

[43] = tested on: MOLT-4; assay type: functional, cell-based;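 also: growth inhibition of MOLT-4 cells, determined with a cell viability readout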
Description: SANGER: Inhibition of human MOLT-4 cell growth in a cell viability assay.

[44] = tested on: CTB-1; assay type: functional, cell-based
Description: SANGER: Inhibition of human CTB-1 cell growth in a cell viability assay.

[45] = tested on: D-502MG; assay type: functional, cell-based
Description: SANGER: Inhibition of human D-502MG cell growth in a cell viability assay.

[46] = tested on: KP-N-YS; assay type: functional, cell-based;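 also: cell viability assay measuring inhibition of cell line growth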
Description: SANGER: Inhibition of human KP-N-YS cell growth in a cell viability assay.

[47] = tested on: CW-2; assay type: functional, cell-based;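 also: growth inhibition of CW-2 cells, read out by a cell viability assay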
Description: SANGER: Inhibition of human CW-2 cell growth in a cell viability assay.

[48] = tested on: RPMI-8226; assay type: functional, cell-based
Description: SANGER: Inhibition of human RPMI-8226 cell growth in a cell viability assay.

[49] = tested on: MSTO-211H; assay type: functional, cell-based
Description: SANGER: Inhibition of human MSTO-211H cell growth in a cell viability assay.

[50] = tested on: SF-539; assay type: functional, cell-based;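 also: Read-out is a cell viability assay, with IC50 reflecting inhibition of cell growth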
Description: SANGER: Inhibition of human SF539 cell growth in a cell viability assay.

[51] = tested on: GB-1; assay type: functional, cell-based;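 also: growth of GB-1 cells judged by a viability assay, IC50 marks the concentration inhibiting growth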
Description: SANGER: Inhibition of human GB-1 cell growth in a cell viability assay.

[52] = tested on: KG-1; assay type: functional, cell-based;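 also: growth inhibition of KG-1 cells, read out by a cell viability assay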
Description: SANGER: Inhibition of human KG-1 cell growth in a cell viability assay.

[53] = tested on: J-RT3-T3-5; assay type: functional, cell-based;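 also: cell viability assay measuring growth inhibition of human J-RT3-T3-5 cells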
Description: SANGER: Inhibition of human J-RT3-T3-5 cell growth in a cell viability assay.

[54] = tested on: DMS-79; assay type: functional, cell-based;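 also: growth inhibition measured with a cell viability assay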
Description: SANGER: Inhibition of human DMS-79 cell growth in a cell viability assay.

[55] = tested on: NCI-H446; assay type: functional, cell-based;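 also: growth inhibition of NCI-H446 cells determined by a cell viability assay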
Description: SANGER: Inhibition of human NCI-H446 cell growth in a cell viability assay.

[56] = tested on: OCI-AML2; assay type: functional, cell-based;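 also: growth inhibition of OCI-AML2 cells, read out with a cell viability assay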
Description: SANGER: Inhibition of human OCI-AML2 cell growth in a cell viability assay.

[57] = tested on: NH-12; assay type: functional, cell-based;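 also: growth inhibition of NH-12 cells, read out with a cell viability assay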
Description: SANGER: Inhibition of human NH-12 cell growth in a cell viability assay.

[58] = tested on: KU812 cell line; assay type: functional, cell-based;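 also: growth inhibition of KU812 cells, read out with a cell viability assay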
Description: SANGER: Inhibition of human KU812 cell growth in a cell viability assay.

[59] = tested on: Ramos-2G6-4C10; assay type: functional, cell-based;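 also: growth inhibition of the cell line, measured by a cell viability read-out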
Description: SANGER: Inhibition of human Ramos-2G6-4C10 cell growth in a cell viability assay.

[60] = tested on: HDLM-2; assay type: functional, cell-based;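 also: cell viability assay measuring suppression of HDLM-2 proliferation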
Description: SANGER: Inhibition of human HDLM-2 cell growth in a cell viability assay.

[61] = tested on: MLMA; assay type: functional, cell-based;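 also: growth inhibition of MLMA cells (human), determined through a cell viability readout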
Description: SANGER: Inhibition of human MLMA cell growth in a cell viability assay.

[62] = tested on: ES6; assay type: functional, cell-based;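 also: growth inhibition of human ES6 cells, read out with a cell viability assay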
Description: SANGER: Inhibition of human ES6 cell growth in a cell viability assay.

[63] = tested on: SNB-75; assay type: functional, cell-based;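 also: cell viability assay measuring growth inhibition of human SNB-75 cells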
Description: SANGER: Inhibition of human SNB75 cell growth in a cell viability assay.

[64] = tested on: SW982; assay type: functional, cell-based
Description: SANGER: Inhibition of human SW982 cell growth in a cell viability assay.

[65] = tested on: TGBC24TKB; assay type: functional, cell-based
Description: SANGER: Inhibition of human TGBC24TKB cell growth in a cell viability assay.

CCn1c(-c2nonc2N)nc2cnc(Oc3cccc(NC(=O)c4ccc(OCCN5CCOCC5)cc4)c3)cc21 [GSK-269962A]
IC50 [1]: 299 nM | IC50 [2]: > 2500 nM | IC50 [3]: > 2500 nM | IC50 [4]: > 2500 nM | IC50 [5]: > 2500 nM | IC50 [6]: > 2500 nM | IC50 [7]: > 2.5 µM | IC50 [8]: > 2500 nM | IC50 [9]: > 2500 nM | IC50 [10]: > 2500 nM | IC50 [11]: 139 nM | IC50 [12]: > 2500 nM | IC50 [13]: > 2500 nM | IC50 [14]: > 2500 nM | IC50 [15]: > 2500 nM | IC50 [16]: 5.23 nM | IC50 [17]: > 2.5 µM | IC50 [18]: > 2500 nM | IC50 [19]: > 2500 nM | IC50 [20]: > 2.5 µM | IC50 [21]: 2310 nM | IC50 [22]: > 2500 nM | IC50 [23]: > 2500 nM | IC50 [24]: > 2500 nM | IC50 [25]: > 2.5 µM | IC50 [26]: > 2500 nM | IC50 [27]: > 2.5 µM | IC50 [28]: > 2500 nM | IC50 [29]: > 2500 nM | IC50 [30]: > 2500 nM | IC50 [31]: > 2500 nM | IC50 [32]: > 2500 nM | IC50 [33]: > 2500 nM | IC50 [34]: > 2500 nM | IC50 [35]: > 2500 nM | IC50 [36]: > 2500 nM | IC50 [37]: > 2500 nM | IC50 [38]: > 2500 nM | IC50 [39]: > 2500 nM | IC50 [40]: > 2500 nM | IC50 [41]: > 2500 nM | IC50 [42]: > 2500 nM | IC50 [43]: > 2500 nM | IC50 [44]: > 2500 nM | IC50 [45]: > 2.5 µM | IC50 [46]: > 2500 nM | IC50 [47]: > 2.5 µM | IC50 [48]: > 2500 nM | IC50 [49]: > 2500 nM | IC50 [50]: 1290 nM | IC50 [51]: > 2500 nM | IC50 [52]: > 2500 nM | IC50 [53]: > 2500 nM | IC50 [54]: > 2500 nM | IC50 [55]: > 2.5 µM | IC50 [56]: > 2500 nM | IC50 [57]: > 2500 nM | IC50 [58]: > 2500 nM | IC50 [59]: 1360 nM | IC50 [60]: > 2500 nM | IC50 [61]: > 2500 nM | IC50 [62]: 247 nM | IC50 [63]: > 2500 nM

CO[C@@]12[C@H](COC(N)=O)C3=C(C(=O)C(C)=C(N)C3=O)N1C[C@@H]1N[C@@H]12 [MITOMYCIN]
IC50 [1]: < 62.5 nM | IC50 [2]: 862 nM | IC50 [3]: 145 nM | IC50 [4]: 1420 nM | IC50 [5]: 2650 nM | IC50 [6]: 221 nM | IC50 [7]: > 16 µM | IC50 [8]: 645 nM | IC50 [9]: 31 nM | IC50 [64]: 105 nM | IC50 [10]: 1180 nM | IC50 [11]: < 62.5 nM | IC50 [12]: 589 nM | IC50 [65]: 710 nM | IC50 [13]: 175 nM | IC50 [14]: 432 nM | IC50 [15]: 1540 nM | IC50 [16]: 35.2 nM | IC50 [17]: > 16 µM | IC50 [18]: 390 nM | IC50 [19]: 17.4 nM | IC50 [20]: 3.15 µM | IC50 [21]: 646 nM | IC50 [22]: 523 nM | IC50 [23]: < 62.5 nM | IC50 [24]: < 62.5 nM | IC50 [25]: 14.9 µM | IC50 [26]: 44.9 nM | IC50 [27]: 4.15 µM | IC50 [28]: < 62.5 nM | IC50 [29]: 1890 nM | IC50 [30]: 30.6 nM | IC50 [31]: 2090 nM | IC50 [32]: 780 nM | IC50 [33]: 46.7 nM | IC50 [34]: 343 nM | IC50 [35]: 403 nM | IC50 [36]: 1220 nM | IC50 [37]: 218 nM | IC50 [38]: 866 nM | IC50 [39]: 156 nM | IC50 [40]: 47.5 nM | IC50 [41]: < 62.5 nM | IC50 [42]: 330 nM | IC50 [43]: < 62.5 nM | IC50 [44]: 306 nM | IC50 [45]: > 16 µM | IC50 [47]: 7.73 µM | IC50 [48]: 1240 nM | IC50 [49]: 2820 nM | IC50 [50]: 127 nM | IC50 [51]: 452 nM | IC50 [52]: 597 nM | IC50 [53]: 186 nM | IC50 [54]: 2470 nM | IC50 [55]: 12.4 µM | IC50 [56]: < 62.5 nM | IC50 [57]: 139 nM | IC50 [58]: 150 nM | IC50 [59]: 2550 nM | IC50 [60]: 1460 nM | IC50 [61]: 1310 nM | IC50 [62]: 746 nM | IC50 [63]: 303 nM
